This passage reports EC50 results from PubChem BioAssay AID493060 (The Scripps Research Institute Molecular Screening Center, 2011).

A word on the EC50: it is the concentration needed to bring the measured effect to its halfway point.

The source made the active and inactive calls. How the calls were made is not given here.

The assay addresses Aryl hydrocarbon receptor (Homo sapiens) (UniProt P35869). The experiment in a line: AHR activator potency, dose response, cell-based, luminescence, luciferase reporter, human (AID 493060). As to conditions: Human cell line AHR-responsive luciferase reporter. (In general: In a reporter assay the amount or activity of a reporter protein is the signal.)

Aryl hydrocarbon receptor (Homo sapiens), sequence (P35869 whole entry, looked up): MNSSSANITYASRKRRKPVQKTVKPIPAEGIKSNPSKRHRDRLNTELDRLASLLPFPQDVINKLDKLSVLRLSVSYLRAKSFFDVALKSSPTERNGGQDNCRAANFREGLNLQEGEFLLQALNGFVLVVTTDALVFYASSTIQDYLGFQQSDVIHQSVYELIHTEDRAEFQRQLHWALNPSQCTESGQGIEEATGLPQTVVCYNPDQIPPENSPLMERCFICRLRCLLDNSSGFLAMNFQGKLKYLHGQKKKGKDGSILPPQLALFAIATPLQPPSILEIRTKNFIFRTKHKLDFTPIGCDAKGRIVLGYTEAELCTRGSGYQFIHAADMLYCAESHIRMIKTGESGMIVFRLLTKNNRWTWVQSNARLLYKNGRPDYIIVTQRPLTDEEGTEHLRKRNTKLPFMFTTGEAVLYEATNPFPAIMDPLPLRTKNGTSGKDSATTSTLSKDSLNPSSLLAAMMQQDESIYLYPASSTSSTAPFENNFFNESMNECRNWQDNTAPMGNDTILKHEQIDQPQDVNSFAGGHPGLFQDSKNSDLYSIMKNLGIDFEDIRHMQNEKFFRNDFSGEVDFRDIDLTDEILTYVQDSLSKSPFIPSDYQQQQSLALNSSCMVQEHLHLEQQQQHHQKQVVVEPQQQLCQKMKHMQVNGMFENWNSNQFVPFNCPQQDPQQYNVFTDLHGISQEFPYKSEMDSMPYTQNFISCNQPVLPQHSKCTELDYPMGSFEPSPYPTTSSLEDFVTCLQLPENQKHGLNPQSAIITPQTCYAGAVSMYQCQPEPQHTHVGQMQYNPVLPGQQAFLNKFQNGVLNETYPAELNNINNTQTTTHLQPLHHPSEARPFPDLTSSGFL

For the compound `Cc1c(-c2ccn[nH]2)cc(NC(=O)c2ccc(Cl)cc2)c(=O)n1N`, the EC50 was 513 nM.
Then `Cc1csc(SCC(=O)Nc2ccc(Cl)cn2)n1`, with 683 nM; and `COc1cc2ccccc2cc1C(=O)Nc1ccc(C)cc1`, with 747 nM; and `O=C(Nc1ccon1)c1cnc2sccn2c1=O`, with “inactive”.
The same measure for `CN(C)c1nc(N)nc(-c2nc3ccccc3s2)n1`: 3330 nM; for `CCOc1ccc(-c2cc(C)n3nc(C(N)=O)cc3n2)cc1`: 1340 nM.
Then `CCOC(=O)Cc1cc(-c2ccc(O)cc2)nc2ccc3ccccc3c12`, with 1080 nM; and `CCOc1ccc(NC(=O)c2cc3ccccc3cc2OC)cc1`, with 1780 nM; and `Cn1c(N)c(C(=O)Nc2ccccc2F)sc1=S`, with 767 nM.
On to `O=C(CN1CCOCC1)Nc1nc2ccc([N+](=O)[O-])cc2s1`, for which the EC50 was 6250 nM.
The same measure for `COc1cc2c(cc1NC(=O)Nc1ccc(C)cc1)oc1ccccc12`: 889 nM; for `COc1ccc(C(=O)Nc2cc(OC)c(NC(=O)c3ccco3)cc2OC)cc1`: 1620 nM; for `Cc1ccccc1-c1nc(-c2cccnc2)no1`: 1330 nM.
For `COc1ccc(Cl)cc1C(=O)Nc1ccc(N(C)C(C)=O)cc1`, the half-maximal effective concentration (EC50) was 2410 nM.
Then `COC(=O)c1ccccc1NC(=O)Cn1ccnc1`, with 2570 nM; and `CCC(=O)Nc1cc(OC)c(NC(=O)c2ccccc2)cc1OC`, with 2490 nM.
Consider `CC(=O)c1ccc(NC(=O)c2cc(Cl)nc3ccccc23)cc1`, for which the EC50 is 968 nM.
The same measure for `Cc1ccc(-c2cc(-c3cccs3)[nH]n2)c(O)c1`: 853 nM.
The same measure for `Cc1cc(Nc2ccc(Br)cc2)n2nc(C)nc2n1`: 217 nM; for `CCOc1ccccc1NC(=O)c1ccc2nccnc2c1`: 2840 nM.
Then `Cc1ccc(Nc2ncccc2C(N)=O)cc1`, with 1130 nM.
As to `COc1ccc(NC(=O)c2cccc3c(Br)cccc23)cc1`, the EC50 is 1860 nM.
Regarding `O=C1c2ccccc2-c2nc3ccccc3nc21`, the EC50 is 3240 nM.
The same measure for `Cc1nc(N)nc(Nc2ccc(Cl)cc2)c1Br`: 1400 nM.
On to `COc1ccccc1NC(=O)c1ccc2c(c1)nnn2C`, for which the half-maximal effective concentration (EC50) was 139 nM.
Then `COc1ccccc1NC(=O)Nc1cccnc1`, with 1470 nM; and `CN1CCN(CCCNC(=O)c2cc3c(-c4ccc(Cl)cc4)nn(C)c3s2)CC1`, with 282 nM.
As to `Cn1c(C(=O)N2CCC(C(N)=O)CC2)cc2cc(Cl)ccc21`, the EC50 is 260 nM.
The same measure for `COc1ccccc1C(=O)Nc1ccc(N2CCCCC2)cc1`: 2980 nM; for `CCCC(=O)Nc1nn(C)c2nc3cc(C)ccc3cc12`: 250 nM.
